# From patent US20250339547A1, “MET BCL-XL INHIBITOR ANTIBODY-DRUG CONJUGATES AND METHODS OF USE THEREOF” (Novartis AG, priority 2022, published 2025)
# Legend:
# EBC-1 = test: In vitro activity in EBC-1 cell line (CTG 120h), Example 6; assay type: cell-based; conditions: Homo sapiens, EBC-1, 120 h, EBC-1, CTG 120 h
# Method: Cell lines were cultured in the media described above at 37° C. in a humidified atmosphere containing 5% CO2. Cells were seeded in 96 well clear bottom plates (96 well clear-bottom, white, Corning reference 3903) and exposed to the mAbs or ADCs for 120h (serially diluted; 9 concentrations each, triplicates). Effects of mAbs or ADCs on cell viability were assessed after 5 days of incubation at 37° C./5% CO2 by quantification of cellular ATP levels using CellTiter-Glo reagent (Promega Ref: G7571) at 75 μL reagent/well. All the conditions were tested in triplicates. Luminescence was quantified on a multipurpose plate reader. IC50s were calculated using standard four-parametric curve fitting. IC50 is defined as the compound concentration at which the CTG signal is reduced to 50% of that measured for the control. Two independent experiments were performed (N1 and N2). IC50 data of each experiment and the arithmetic mean is shown in Table 14 for all the antibodies and ADCs tested.
# SNU-5 = test: In vitro activity in SNU-5 cell line (CTG 120h), Example 12; assay type: cell-based; conditions: Homo sapiens, SNU-5, 120 h, SNU5, CTG 120 h
# Method: EBC-1 and SNU-5 cell lines were cultured in the media described above at 37° C. in a humidified atmosphere containing 5% CO2. […] Effects of mAbs or ADCs on cell viability were assessed after 5 days of incubation at 37° C./5% CO2 by quantification of cellular ATP levels using CellTiter-Glo reagent (Promega Ref: G7571) at 75 μL reagent/well. All the conditions were tested in triplicates. Luminescence was quantified on a multipurpose plate reader. IC50s were calculated using standard four-parametric curve fitting. […] Two independent experiments were performed (N1 and N2).
# H1650 xenografts = test: In vivo efficacy alone or with paclitaxel in Met non amplified NCI-H1650 lung adenocarcinoma human cell model, Example 15; set-up: species or system SCID mice; conditions: paclitaxel 12.5 mg/kg IV at day 1, 8 and 15, single agent
# Method: Below are the procedures for determining the in vivo therapeutic effect of a Bcl-xL ADC targeting the Met protein as a single agent or in combination with paclitaxel. Their activities were compared to the corresponding naked anti-Met mAb or Ab G-L42C-P25 (non-targeting ADC) formulated in Phosphate-Buffered Saline (PBS) in a Met non amplified NCI-H1650 lung adenocarcinoma human cell line after intravenous (IV) administration.
# NCI-H1650 cells, obtained from ATCC, were cultured in RPMI supplemented with 10% SBS, 1% Penicillin-Streptomycin and 1% HEPES. Cells were resuspended in 50% Matrigel® (Corning®) and 0.1 ml containing 10×10^6 cells were subcutaneously inoculated into the right flank of female SCID mice, provided by Charles River.
# Mice body weight was monitored 3 times a week and tumor size measured using electronic calipers. Tumor volume was estimated by measuring the minimum and maximum tumor diameters using the formula: (minimum diameter)2(maximum diameter)/2.
# With DTV (Delta Tumor Volume) at Dx, calculated being TV at Dx−TV at Randomization.
# Mice were sacrificed at the first measurement for which tumor volume exceeded 2000 mm3 or at the first signs of animal health deterioration. […] SCID mice were maintained according to institutional guidelines.
# [1] = system: pancreatic cancer cell lines; test: Pancreatic cancer cell line panel of Example 10 (CTG 120h); assay type: cell-based; conditions: pancreatic cancer cell lines of Table 16, single agents
# Method: Cell lines were cultured in the media described above at 37° C. in a humidified atmosphere containing 5% CO2. […] When in 1:1 combination, both the combining partner (Paclitaxel, Trametinib or Gemcitabine) and the mAb or ADC were serially diluted (9 concentrations each, triplicates). Effect on cell viability was assessed after 5 days of incubation at 37° C./5% CO2 by quantification of cellular ATP levels using CellTiter-Glo reagent (Promega Ref: G7571) at 75 μL reagent/well. All the conditions were tested in triplicates. Luminescence was quantified on a multipurpose plate reader. IC50s were calculated using standard four-parametric curve fitting. […] Two independent experiments were performed (N1 and N2).
# lung cancer cell lines = test: Lung cancer cell line panel of Example 7, statements in text (CTG 120h); assay type: cell-based; conditions: lung cancer cell lines of Table 15, single agents
# Method: Cell lines were cultured in the media described above at 37° C. in a humidified atmosphere containing 5% CO2. Cells were seeded in 96 well clear bottom plates (96 well clear-bottom, white, Corning reference 3903) and exposed to the mAbs, mAbs mixture, ADCs or ADCs mixture as single agents or in 1:1 combination with Paclitaxel. When in 1:1 combination, both the combining partner (Paclitaxel) and the mAb, mAb mixture, ADC or ADC mixture were serially diluted (9 concentrations each, triplicates). Effect on cell viability was assessed after 5 days of incubation at 37° C./5% CO2 by quantification of cellular ATP levels using CellTiter-Glo reagent (Promega Ref: G7571) at 75 μL reagent/well. All the conditions were tested in triplicates. Luminescence was quantified on a multipurpose plate reader. IC50s were calculated using standard four-parametric curve fitting. IC50 is defined as the compound concentration at which the CTG signal is reduced to 50% of that measured for the control. Two independent experiments were performed (N1 and N2).
IC50 (EBC-1; mean) [nM],IC50 (EBC-1; n = 1) [nM],IC50 (EBC-1; n = 2) [nM],IC50 (SNU-5; Mean) [nM],IC50 (SNU-5; N1) [nM],IC50 (SNU-5; N2) [nM],SMILES,TGI % (d 18) (H1650 xenografts) [%],effect on the viability [1],effect on the viability (lung cancer cell lines)
43.4,20.8,65.9,5510,5510,> 30000,"Cc1c(Nc2nc3ccccc3s2)nnc2c1CCCN2c1ccc(-c2cnn(C[C@]34C[C@]5(C)C[C@](C)(C3)C[C@@](OCCNCCCO)(C5)C4)c2C)c(C(=O)O)n1 [P25, 6-[3-(1,3-benzothiazol-2-ylamino)-4-methyl-6,7-dihydro-5H-pyrido[2,3-c]pyridazin-8-yl]-3-[1-[[3-[2-(3-hydroxypropylamino)ethoxy]-5,7-dimethyl-1-adamantyl]methyl]-5-methyl-pyrazol-4-yl]pyridine-2-carboxylic acid]",–,–,–
–,–,–,–,–,–,"CC(=O)O[C@H]1C(=O)[C@@]2(C)[C@H]([C@H](OC(=O)c3ccccc3)[C@]3(O)C[C@H](OC(=O)[C@H](O)[C@@H](NC(=O)c4ccccc4)c4ccccc4)C(C)=C1C3(C)C)[C@]1(OC(C)=O)CO[C@@H]1C[C@@H]2O [Paclitaxel, paclitaxel]",−14.4,induced dose dependent decrease in cell viability with measurable IC50 for most of the cell lines,induced dose dependent decrease in cell viability (with measurable IC50) in all cell lines except NCI-H1838
